# Results taken from patent publication EP4227307A1 (Genzyme Corporation, priority 2022, dated 2023).
# Where a name gives a salt, the structure may show the parent alone.
# Target: T1, human recombinant 6His-Nterm SHP2 full-length (Thr2-Arg593) (Homo sapiens, UniProt Q06124)
# T1 construct: 6His-Nterm SHP2 full-length (Thr2-Arg593, R&D system); 6His (N); purchased R&D system
# T1 sequence (Q06124 2-593): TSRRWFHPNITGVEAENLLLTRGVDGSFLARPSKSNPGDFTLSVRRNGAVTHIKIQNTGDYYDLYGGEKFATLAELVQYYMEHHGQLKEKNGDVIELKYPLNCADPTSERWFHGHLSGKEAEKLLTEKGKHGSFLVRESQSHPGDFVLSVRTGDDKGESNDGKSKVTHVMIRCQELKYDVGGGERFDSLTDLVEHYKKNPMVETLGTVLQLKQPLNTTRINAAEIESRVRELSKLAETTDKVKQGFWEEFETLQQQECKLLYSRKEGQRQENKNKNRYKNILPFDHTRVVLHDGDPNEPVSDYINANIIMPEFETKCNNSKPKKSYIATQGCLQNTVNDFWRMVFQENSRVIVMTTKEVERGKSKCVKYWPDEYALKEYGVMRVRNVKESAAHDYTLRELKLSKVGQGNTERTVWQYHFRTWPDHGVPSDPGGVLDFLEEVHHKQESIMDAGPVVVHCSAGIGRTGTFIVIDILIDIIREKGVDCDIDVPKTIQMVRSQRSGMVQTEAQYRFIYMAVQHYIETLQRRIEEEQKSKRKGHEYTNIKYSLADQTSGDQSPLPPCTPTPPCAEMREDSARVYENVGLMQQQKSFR
# Test: SHP2 Phosphatase Assay (DiFMUP fluorescence)
# Format: biochemical
# Settings: SHP2 0.2 nM pre-incubated with 100 nM bi-phosphorylated activating peptide; compound 1000-0.05 nM, 30 min pre-incubation; DiFMUP 20 µM, 45 min, room temperature; 10-concentration dose-response
# Experimental: Inhibition of SHP2 phosphatase activity was evaluated using human recombinant 6His-Nterm SHP2 full-length (Thr2-Arg593, R&D system), NsCs bi-phosphorylated activating peptide (NH2-LN(pY)AQLWHA(PEG8)LTI(pY)ATIRRF-Amide.acetate, Thermofischer Scientific) and DiFMUP as surrogate phosphatase substrate (Molecular Probes). All reactions were performed at room temperature in 384-well black polystyrene non-binding plate (Corning) with the assay buffer (50 mM HEPES-NaOH pH 7.2, 100 mM NaCl, 0.5 mM EDTA, 0.001% Brij35 including 0.02% BSA and 1 mM DTT added extemporaneously). SHP2 was pre-incubated at least 10 min with the activating peptide (0.2 nM and 100 nM, respectively). 10 µL of this mixture was added to the assay plate, that already contained 15 nL of the compound (1000-0.05 nM). After 30 min pre-incubation, the enzymatic reaction was initiated by the addition of 5 µL DiFMUP in assay buffer without BSA (20 µM). The reaction was stopped by the addition of 15 µL sodium pervanadate solution (100 µM) after 45 min incubation. The fluorescence signal was measured at excitation and emission wavelengths of 350 nm and 450 nm, respectively, using a Pherastar instrument (BMG-LabTech). Percentage of inhibition […] were calculated from the fluorescence signal at 450 nm of the positive and negative control using the following formula: I% = ((signal Max−signal Sample)/(signal Max−signal Min control)) × 100 [formula]
# Positive control (Max): corresponds to the maximum fluorescence signal obtained in the presence of 15 nL DMSO replacing the inhibitor in the pre-incubation step.
# Negative control (Min): corresponds to the minimum signal obtained in the presence of 1 µM of RMC-4550, the structure of which is shown below: [drawing 464]
# The IC50 were then calculated from a dose-response curve of 10 concentrations of tested compound using the 4-parameter logistic model: I% = A + (C)/(1 + exp(−B×log(X)−M)) [formula]
# The parameters A and (A+C) are the lower and upper limits, B is the slope of the curve at the inflexion point, M parameter is the logarithm of the abscissa at the inflexion point, and X is the concentration of compound.
row,SMILES,IC50 [nM]
1,"Cc1nc(N2CCC3(CC2)Cc2ncccc2[C@H]3N)c2ccnn2c1-c1cc(C(F)(F)F)nn1C [Compound 163, (5S)-1'-[6-methyl-7-[2-methyl-5-(trifluoromethyl)pyrazol-3-yl]pyrazolo[1,5-a]pyrazin-4-yl]spiro[5,7-dihydrocyclopenta[b]pyridine-6,4'-piperidine]-5-amine]",30
2,"Cc1nc(N2CCC3(CC2)[C@H](N)c2ccccc2N3C)c2ccnn2c1-c1ccccc1F [Compound 155, (3R)-1'-[7-(2-fluorophenyl)-6-methyl-pyrazolo[1,5-a]pyrazin-4-yl]-1-methyl-spiro [indoline-2,4'-piperidine]-3-amine]",202
3,"Cc1nc(N2CCC3(CC2)Cc2ncccc2[C@H]3N)c2c(F)cnn2c1-c1ccccc1F [Compound 142, (5S)-1'-[3-fluoro-7-(2-fluorophenyl)-6-methyl-pyrazolo [1,5-a]pyrazin-4-yl]spiro[5,7-dihydrocyclopenta[b]pyridine-6,4'-piperidine]-5-amine hydrochloride]",26
4,"COc1ccc2c(c1)[C@@H](N)C1(CCN(c3nc(C)c(-c4cc(C)nn4C)n4nccc34)CC1)C2 [Compound 123, (1S)-1'-[7-(2,5-dimethylpyrazol-3-yl)-6-methyl-pyrazolo[1,5-a]pyrazin-4-yl]-6-methoxy-spiro[indane-2,4'-piperidine]-1-amine hydrochloride]",9
5,"Cc1nc(N2CCC3(CC2)Cc2ncccc2[C@H]3N)c2ccnn2c1-c1ccc2ncccc2c1F [Compound 30, (5S)-1'-[7-(5-fluoro-6-quinolyl)-6-methyl-pyrazolo [1 ,5-a]pyrazin-4-yl]spiro[5,7-dihydrocyclopenta[b]pyridine-6,4'-piperidine] -5-amine formate]",17
6,"Cc1nc2c(s1)[C@@H](N)C1(CCN(c3nc(C)c(-c4ccccc4F)n4nccc34)CC1)C2 [Compound 83, (6S)-1'-[7-(2-fluorophenyl)-6-methyl-pyrazolo[1,5-a]pyrazin-4-yl]-2-methyl-spiro[4,6-dihydrocyclopenta[d]thiazole-5,4'-piperidine]-6-amine hydrochloride]",10
7,"Cc1nccc(-c2cnc(N3CCC4(CC3)Cc3ncccc3[C@H]4N)c3ccnn23)c1Cl [Compound 86, (5S)-1'-[7-(3-chloro-2-methyl-4-pyridyl)pyrazolo[1,5-a]pyrazin-4-yl]spiro[5,7-dihydrocyclopenta[b]pyridine-6,4'-piperidine]-5-amine hydrochloride]",60
8,"Cc1nc(N2CCC3(CC2)Cc2ncccc2[C@@H]3N)c2ccnn2c1-c1ccccc1 [Compound 141, (5R)-1'-(6-methyl-7-phenyl-pyrazolo[1,5-a]pyrazin-4-yl)spiro[5,7-dihydrocyclopenta[b]pyridine-6,4'-piperidine]-5-amine]",853
9,"Cc1nc2c(o1)[C@@H](N)C1(CCN(c3nc(C)c(-c4ccccc4F)n4nccc34)CC1)C2 [Compound 224, (6S)-1'-[7-(2-fluorophenyl)-6-methyl-pyrazolo[1,5-a]pyrazin-4-yl]-2-methyl-spiro[4,6-dihydrocyclopenta[d]oxazole-5,4'-piperidine]-6-amine]",27
10,"Cc1nc2c(s1)[C@@H](N)C1(CCN(c3nc(C)c(-c4cnn(C)c4C)n4nccc34)CC1)C2 [Compound 82, (6S)-1'-[7-(1,5-dimethylpyrazol-4-yl)-6-methyl-pyrazolo[1,5-a]pyrazin-4-yl]-2-methyl-spiro[4,6-dihydrocyclopenta[d]thiazole-5,4'-piperidine] -6-amine hydrochloride]",27
11,"Cc1nc(N2CCC3(CC2)Cc2ncccc2[C@H]3N)c2ccnn2c1-c1ccc(N)nc1 [Compound 177, (5S)-1'-[7-(6-amino-3-pyridyl)-6-methyl-pyrazolo[1,5-a]pyrazin-4-yl]spiro[5,7-dihydrocyclopenta[b]pyridine-6,4'-piperidine]-5-amine]",27
12,"Cc1nc(N2CCC3(CC2)Cc2cccnc2[C@H]3N)c2ccnn2c1-c1cnn(C)c1C [Compound 130, (7S)-1'-[7-(1,5-dimethylpyrazol-4-yl)-6-methyl-pyrazolo[1,5-a]pyrazin-4-yl]spiro[5,7-dihydrocyclopenta[b]pyridine-6,4'-piperidine]-7-amine]",60
13,"Cc1nc(N2CCC3(CC2)Cc2ncccc2[C@H]3N)c2ccnn2c1-c1cccc(F)c1C#N [Compound 180, 2-fluoro-6-[6-methyl-4-[(5S)-5-aminospiro[5,7-dihydrocyclopenta[b]pyridine-6,4'-piperidine]-1'-yl]pyrazolo[1,5-a]pyrazin-7-yl]benzonitrile]",39

# Next, values leading:
row,IC50 [nM],SMILES
1,7,"Cc1cccc(-c2c(C)nc(N3CCC4(CC3)Cc3ncccc3[C@H]4N)c3ccnn23)c1F [Compound 166, (5S)-1'-[7-(2-fluoro-3-methyl-phenyl)-6-methyl-pyrazolo[1,5-a]pyrazin-4-yl]spiro[5,7-dihydrocyclopenta[b]pyridine-6,4'-piperidine]-5-amine]"
2,4,"Cc1nc(N2CCC3(CC2)Cc2ccncc2[C@H]3N)c2ccnn2c1-c1ccccc1 [Compound 138, (7S)-1'-(6-methyl-7-phenyl-pyrazolo[1,5-a]pyrazin-4-yl)spiro[5,7-dihydrocyclopenta[c]pyridine-6,4'-piperidine]-7-amine]"
3,12,"COc1cc2c(cn1)[C@@H](N)C1(CCN(c3nc(C)c(-c4ccccc4F)n4nccc34)CC1)C2 [Compound 122, (7S)-1''-[7-(2-fluorophenyl)-6-methyl-pyrazolo[1,5-a]pyrazin-4-yl] -3-methoxy-spiro [5,7-dihydrocyclopenta[c]pyridine-6,4'-piperidine]-7-amine]"
4,15,"Cc1nc(N2CCC3(CC2)Cc2ncccc2[C@H]3N)c2ccnn2c1-c1ccnc(C(F)(F)F)c1F [Compound 41, (5S)-1'-[7-[3-fluoro-2-(trifluoromethyl)-4-pyridyl]-6-methyl-pyrazolo[1,5-a]pyrazin-4-yl]spiro[5,7-dihydrocyclopenta[b]pyridine-6,4'-piperidine]-5-amine]"
5,3,"CCc1nccc(-c2c(C)nc(N3CCC4(CC3)Cc3ncccc3[C@H]4N)c3ccnn23)c1Cl [Compound 42, (5S)-1'-[7-(3chloro-2-ethyl-4-pyridyl)-6-methyl-pyrazolo[1,5-a]pyrazin-4-yl]spiro[5,7-dihydrocyclopenta[b]pyridine-6,4'-piperidine]-5-amine]"
6,16,"Cc1nc(N2CCC3(CC2)Cc2ncccc2[C@H]3N)c2ccnn2c1-c1ccnc(CO)c1Cl [Compound 207, [4-[4-[(5S)-5-aminospiro[5,7-dihydrocyclopenta[b]pyridine-6,4'-pipetidine]-1'-yl]-6-methyl-pyrazolo[1,5-a]pyrazin-7-yl]-3-chloro-2-pyridyl]methanol]"
7,14,"Cc1nc(N2CCC3(CC2)Cc2ncccc2[C@H]3N)c2ccnn2c1-c1cncc(Cl)c1 [Compound 199, (5S)-1'-[7-(5-chloro-3-pyridyl)-6-methyl-pyrazolo[1,5-a]pyrazin-4-yl]spiro[5,7-dihydrocyclopenta[b]pyridine-6,4'-piperidine]-5-amine]"
8,6,"Cc1nc(N2CCC3(CC2)Cc2ncccc2[C@H]3N)c2ccnn2c1-c1ccc(N(C)C)nc1 [Compound 176, (5S)-1'-[7-[6-(dimethylamino)-3-pyridyl]-6-methyl-pyrazolo [1 ,5-a]pyrazin-4-yl]spiro[5,7-dihydrocyclopenta[b]pyridine-6,4'-piperidine]-5-amine]"
9,16,"Cc1nc(N2CCC3(CC2)Cc2ncccc2[C@H]3N)c2ccnn2c1-c1ccc2cnccc2c1 [Compound 169, (5S)-1'-[7-(6-isoquinolyl)-6-methyl-pyrazolo[1,5-a]pyrazin-4-yl]spiro[5,7-dihydrocyclopenta[b]pyridine-6,4'-piperidine]-5-amine]"
